Data set [1] can be described thus: Pharmacokinetics of 4-chlorocurcumin in rats. Conditions: male, Wistar, blood, iv; rat, i.v. solution, 2.8 mg. Format: in vivo. The method, then: From the data of the release studies, a suitable microsphere formulation to be used further in the rat studies was selected. For in vivo characterization, in vivo drug release (pharmacokinetic study) and reduction in hepatoprotective activity in a CCl4-treated rat model were determined. Pharmacokinetics of the formulation was studied in male Wistar rats. After procurement of the rats, these were acclimatized for 10 days prior to the conduction of the experiment. Rats were injected one time with microsphere suspension containing 2.8 mg of active drug intraperitoneally. A 20 mg microsphere suspension was dispersed in 1 ml normal saline and was injected. Parallel to the microsphere administration, another dose of the drug in the form of solution was administered via i.v. route in another set of rats. In this case drug was administered at an equivalent dose of 2.8 mg. Blood was periodically collected from retroorbital sinus and assayed for the drug using a HPLC standard developed using a previously reported method. The mobile phase consisted of methanol:water at a ratio of 70:30. The retention times and the peak areas were noted. Extraction efficiency for the selected system was determined. The following possible pharmacokinetic parameters for both iv solution administration as well as ip microsphere administration were determined using WinNonlin: Ka, ke, Vd, elimination t1/2, absorption t1/2, Tmax, Cmax. Further, using Wagner-Nelson method cumulative amount of drug released into the plasma was determined.

A further data set concerns CCl4-treated rat model. The experiment in a line: Hepatoprotective activity in CCl4-treated rat model. Type of data set: in vivo, male Wistar rats. Conditions: CCl4-treated rats. The method, then:
Hepatoprotective activity was determined for both the microsphere formulation and i.v. solution administration of 4-chlorocurcumin following a protocol reported previously. Another set of rats were used in this study. Male rats weighing around 150-200 g was used in this study. For this experiment, animals were divided into 6 different groups. Group I were normal control. Group II was given carbontetrachloride regularly and it served as toxic control. Group II received CCl4 at a dose of 0.7 ml/kg by intraperitonial route on the 3rd, 6th and 9th day consisting of mixture of CCl4 and olive oil (25:75). Group III received the drug in the solution form by i.v. route. Group III received 4-chlorocurcumin dissolved in PEG 600 solution at a rationale of 1 mg/ml by intravenous route twice daily. Group IV received 4-chlorocurcumin microsphere formulation one time in the beginning of the experiment. Microspheres 2 was administered for this purpose. A 20 mg of formulation was dispersed in 1 ml normal saline and was administered intraperitoneally. Group V were injected with placebo microspheres and Group VI served as a control for PEG injected and was injected 1 ml of PEG solution twice a day. Serum samples were procured from the blood samples collected from common carotid artery on the final day of experimentation prior to sacrifice of the animal. The blood samples collected were subjected to centrifugation for 15 min at 3000 rpm and the serum separated was transferred into fresh empty microcentrifuge tube and was stored in deep freeze for pharmacodynamic evaluation. Hepatoprotective activity was quantified by the activity of SGOT, SGPT levels present in the serum samples and the method used for quantification was modified IFFC method. Subsequently, livers of the all rats in each group were further sent for histopathological studies and for this purpose at the end of the study the rats were sacrificed, the livers were separated carefully and were transferred to sterile containers having formalin solution. Liver sections were subsequently prepared using a previously published method.

The mark [2] stands for this setting: serum, final day, solution i.v. twice daily, microspheres 20 mg i.p. one time.

In the case of `O=C(/C=C/c1ccc(Cl)cc1)CC(=O)/C=C/c1ccc(Cl)cc1` [4-chlorocurcumin], in data set [1], the AUC is 227 µg·h/mL, the peak level (Cmax) was 196 µg/mL, the time of peak concentration (Tmax) was determined as 0.5 h and the Vd was 0.0235 L. Besides, in data set [1], the clearance is 0.137 mL/min and the half-life was 1.99 h. The “Hepatoprotective activity (reversal of SGOT and SGPT versus toxic control CCl4)” value with CCl4-treated rat model is recorded as “although statistically significant, was not reduced to reach the normal levels”. In addition, the Histology of liver entry with CCl4-treated rat model (end of study) is on record as “Normal liver”. Also, in the data set with CCl4-treated rat model (setting [2]), the SGOT was 42.10±1.5 u/1 and the SGPT worked out at 25.7±1.8 u/1. The “Body weights on day 9” value in the data set with CCl4-treated rat model (solution i.v. twice daily, microspheres 20 mg i.p. one time) came out at 190 ± 18 g.

In general, AUC refers to the area under the concentration-time curve, a measure of exposure. Read a low AUC as less exposure. A word on the Cmax: it is the peak of the concentration-time curve. As a reminder, the Tmax is the time from dosing to the highest level. As usually defined, the Vd is a proportionality between amount in the body and measured concentration, not a real space. Read a high Vd as extensive tissue distribution. By clearance is commonly meant a measure of how efficiently the substance is removed, as volume per time. Low values mean inefficient removal, high ones efficient removal. As a reminder, the half-life is the time in which the quantity being followed falls by half. Higher therefore signals slow decline.

The record behind these values is paper PMC3003168, “Preparation and In vitro / In vivo characterization of spray dried microsphere formulation encapsulating 4-chlorocurcumin” (Indian Journal of Pharmaceutical Sciences, 2010).
